One experiment concerns the target T1, JAK3 (Homo sapiens, UniProt P52333).
T1 sequence (P52333 1-1124): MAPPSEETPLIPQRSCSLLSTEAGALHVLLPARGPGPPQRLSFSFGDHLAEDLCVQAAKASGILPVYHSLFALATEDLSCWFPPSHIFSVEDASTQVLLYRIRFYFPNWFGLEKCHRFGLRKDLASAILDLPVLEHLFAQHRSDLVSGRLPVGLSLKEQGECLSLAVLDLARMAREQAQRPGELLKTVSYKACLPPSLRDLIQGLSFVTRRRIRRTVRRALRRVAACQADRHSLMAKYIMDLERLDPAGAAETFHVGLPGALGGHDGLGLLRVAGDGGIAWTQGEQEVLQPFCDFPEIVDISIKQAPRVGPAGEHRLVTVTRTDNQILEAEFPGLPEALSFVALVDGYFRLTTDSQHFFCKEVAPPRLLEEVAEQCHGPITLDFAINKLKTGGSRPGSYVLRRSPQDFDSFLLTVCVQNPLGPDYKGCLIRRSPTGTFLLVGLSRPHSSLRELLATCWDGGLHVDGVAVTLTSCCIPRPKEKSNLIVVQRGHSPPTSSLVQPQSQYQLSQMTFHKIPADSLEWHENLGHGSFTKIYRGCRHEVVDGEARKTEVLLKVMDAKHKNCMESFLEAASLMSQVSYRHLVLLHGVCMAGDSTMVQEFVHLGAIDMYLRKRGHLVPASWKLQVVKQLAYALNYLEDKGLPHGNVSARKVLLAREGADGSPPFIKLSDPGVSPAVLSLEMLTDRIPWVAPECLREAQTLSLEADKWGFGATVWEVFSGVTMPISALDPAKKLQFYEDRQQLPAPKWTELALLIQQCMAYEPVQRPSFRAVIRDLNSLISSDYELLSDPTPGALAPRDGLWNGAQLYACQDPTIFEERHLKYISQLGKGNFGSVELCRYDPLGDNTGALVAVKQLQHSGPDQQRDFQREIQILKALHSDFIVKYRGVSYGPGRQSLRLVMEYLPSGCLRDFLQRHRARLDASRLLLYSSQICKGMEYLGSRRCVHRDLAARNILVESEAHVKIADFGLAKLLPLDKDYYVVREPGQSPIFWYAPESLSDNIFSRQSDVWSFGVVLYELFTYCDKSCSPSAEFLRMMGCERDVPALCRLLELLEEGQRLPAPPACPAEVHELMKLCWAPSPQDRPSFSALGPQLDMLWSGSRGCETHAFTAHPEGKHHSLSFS
Briefly: KINOMEscan bead-based competition Kd. Format: binding.

For the next experiment, the target named is T2, JAK2 (Homo sapiens, UniProt O60674).
T2 construct: JH1 domain
T2 sequence (O60674 840-1132 limits assumed): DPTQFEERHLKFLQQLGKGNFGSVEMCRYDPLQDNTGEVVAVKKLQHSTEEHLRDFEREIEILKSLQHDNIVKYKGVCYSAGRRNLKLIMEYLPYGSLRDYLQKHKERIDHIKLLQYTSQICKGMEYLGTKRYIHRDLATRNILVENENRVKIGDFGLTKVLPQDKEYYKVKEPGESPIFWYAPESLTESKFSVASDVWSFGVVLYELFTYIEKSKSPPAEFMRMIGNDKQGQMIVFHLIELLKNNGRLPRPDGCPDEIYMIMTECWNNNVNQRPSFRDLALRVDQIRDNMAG
Briefly: KINOMEscan bead-based competition Kd; also Z'LYTE kinase assay, […] inhibition at […]. The format is binding.

`CCN(CC)CC[C@H](CNc1ccnc2cc(Cl)ccc12)c1ccc(O)cc1` [NSC13626]: the dissociation constant (Kd) (as a rule, the concentration at which binding is half-saturated) on JAK3 amounted to 4.6 µM; at JAK2 it was 6.6 µM.

The record behind these values is article PMC6288363, “A Novel Selective JAK2 Inhibitor Identified Using Pharmacological Interactions” (Frontiers in Pharmacology, 2018).
